# Target: T1, hROMK (hKir1.1) (Homo sapiens, UniProt P48048)
# T1 construct: expressed in transfected cells
# T1 sequence (P48048 1-391): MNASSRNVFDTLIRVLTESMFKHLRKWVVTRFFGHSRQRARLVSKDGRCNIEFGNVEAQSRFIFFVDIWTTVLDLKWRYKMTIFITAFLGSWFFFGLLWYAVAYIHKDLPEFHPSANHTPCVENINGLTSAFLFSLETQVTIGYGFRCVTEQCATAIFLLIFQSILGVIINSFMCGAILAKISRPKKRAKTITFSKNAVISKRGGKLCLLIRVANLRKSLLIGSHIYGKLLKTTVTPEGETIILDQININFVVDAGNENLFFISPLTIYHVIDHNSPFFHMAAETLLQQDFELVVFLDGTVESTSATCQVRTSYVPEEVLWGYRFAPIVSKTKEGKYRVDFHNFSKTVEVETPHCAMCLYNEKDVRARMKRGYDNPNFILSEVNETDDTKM
# Assay: Thallium Flux Assay
# Assay type: cell-based
# Details: HEK293 cells stably expressing hROMK (hKir1.1), FLIPR-Tetra; read-out: Thallium Flux IC50
# Procedure, shortened: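 HEK293 cells stably expressing hROMK, loaded with FluxOR dye 90 min at ambient temperature, then compound 30 min with 0.3 mM ouabain in probenecid buffer pH 7.4.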
row,SMILES,IC50
1,"C[C@@H]1Cc2cc([C@]3(C)CN4CCN(C(=O)Cc5ccc(-n6cnnn6)nc5)C[C@H]4CO3)ccc2C(=O)O1 [Example 105, (3R)-3-methyl-6-[(3R,9a,S)-3-methyl-8-{[6-(1H-tetrazol-1-vl)pvridin-3-yl]acetyl}octahydropyrazino[2,1-c][1,4]oxazin-3-yl]-3,4-dihydro-1H-isochromen-1-one]",350 nM
2,"Cc1c([C@H]2CN3CCN(C(=O)Cc4ccc(-n5cnnn5)nc4)C[C@H]3CS2)ccc2c1COC2=O [Example 167, 4-methyl-5-[(3S,9aS)-8-{[6-(1H-tetrazol-1-yl)pyridin-3-yl]acetyl}octahydropyrazino[2,1-c][1,4]thiazin-3-yl]-2-benzofuran-1(3H)-one]",420 nM
3,"O=C(Cc1cnc(-n2cnnn2)nc1)N1CCN2C[C@@H](c3ccc4nonc4c3)OC[C@@H]2C1 [Example 175, (3R,9aS)-3-(2,1,3-benzoxadiazol-5-yl)-8-{[2-(1H-tetrazol-1-vl)pvrimidin-5-yl]acetyl}octahydropyrazino[2,1-c][1,4]oxazine]",530 nM
4,"Cc1c([C@@H]2CN3CCN(C(=O)Cc4ccc(-n5cnnn5)nc4)C[C@H]3CS2)ccc2c1COC2=O [Example 166, 4-methyl-5-[(3R,9aS)-8-{[6-(1H-tetrazol-1-yl)pyridin-3-yl]acetyl}octahydropyrazino[2,1-c][1,4]thiazin-3-yl]-2-benzofuran-1(3H)-one]",380 nM
5,"N#Cc1c(F)ccc([C@H]2CN3CCN(C(=O)Cc4ccc(-n5cnnn5)nc4)C[C@H]3CO2)c1Cl [Example 10, 2-chloro-6-fluoro-3-[(3S,9aS)-8-{[6-(1H-tetrazol-1-yl)pvridin-3-yl]acetyl}octahydropyrazino[2,1-c][1,4]oxazin-3-yl]benzonitrile]",70 nM
6,"Cc1c([C@@H]2CN3CCN(C(=O)Nc4ccc(-n5cnnn5)nc4)C[C@@H]3CO2)ccc(F)c1C#N [Example 199, (3R,9aR)-3-(3-cyano-4-fluoro-2-methylphenyl)-N-[6-(1H-tetrazol-1-yl)pyridin-3-yl]hexahydropyrazino[2,1-c][1,4]oxazine-8(1H)-carboxamide]",140 nM
7,"COc1c([C@@H]2CN3CCN(C(=O)Cc4ccc(-n5cnnn5)nc4)C[C@H]3CO2)ccc(F)c1C#N [Example 60, 6-fluoro-2-methoxy-3-[(3R,9aS)-8-{[6-(1H-tetrazol-1-vl)pvridin-3-yl]acetyl}octahydropyrazino[2,1-c][1,4]oxazin-3-yl]benzonitrile]",140 nM
8,"Cc1nc(-n2cnnn2)nc(C)c1CC(=O)N1CCN2C[C@H](c3ccc(F)c(C#N)c3C)OC[C@@H]2C1 [Example 150, 3-[(3S,9aS)-8-{[4,6-dimethyl-2-(1H-tetrazol-1-yl)pyrimidin-5-yl]acetyl}octahydropyrazino[2,1-c][1,4]oxazin-3-yl]-6-fluoro-2-methylbenzonitrile]",290 nM
9,"O=C1OCc2cc([C@H]3CN4CCN(C(=O)Cc5ccc(-n6cnnn6)cn5)C[C@H]4CO3)ccc21 [Example 28, 5-[(3S,9aS)-8-{[5-(1H-tetrazol-1-yl)pyridin-2-yl]acetyl}octahydropyrazino[2,1-c][1,4]oxazin-3-yl]-2-benzofuran-1(3H)-one]",180 nM
10,"COc1cc([C@H]2CN3CCN(C(=O)Cc4ccc(-n5cnnn5)nc4)C[C@H]3CO2)ccc1C#N [Example 56, 2-methoxy-4-[(3S,9aS)-8-{[6-(1H-tetrazol-1-yl)pyridin-3-yl]acetyl}octahydropyrazino[2,1-c][1,4]oxazin-3-yl]benzonitrile]",120 nM

# Same assay, conditions: Thallium Flux IC50
row,SMILES,IC50
1,"Cc1nc(CC(=O)N2CCN3C[C@H](c4ccc(F)c(C#N)c4C)OC[C@@H]3C2)ccc1-n1cnnn1 [Example 127, 6-fluoro-2-methyl-3-[(3S,9aS)-8-{[6-methyl-5-(1H-tetrazol-1-vl)pvridin-2-yl]acetyl}octahydropyrazino[2,1-c][1,4]oxazin-3-yl]benzonitrile]",90 nM
2,Cc1c([C@@H]2CN3CCN(C(=O)Cc4cnc(-n5cnnn5)nc4)C[C@H]3CO2)ccc(F)c1C#N [Example 14],80 nM
3,"Cc1c(C#N)cccc1[C@H]1CN2CCN(C(=O)Cc3ccc(-n4cnnn4)nc3)C[C@H]2CO1 [Example 90, 2-methyl-3-[(3S,9aS)-8-{[6-(1H-tetrazol-1-yl)pyridin-3-yl]acetyl}octahydropyrazino[2,1-c][1,4]oxazin-3-yl]benzonitrile]",130 nM
4,"Cc1nc(-n2cnnn2)ccc1CC(=O)N1CCN2C[C@H](c3cccc(C#N)c3C)OC[C@@H]2C1 [Example 92, 2-methyl-3-[(3S,9aS)-8-{[2-methyl-6-(1H-tetrazol-1-yl)pyridin-3-yl]acetyl}octahydropyrazino[2,1-c][1,4]oxazin-3-yl]benzonitrile]",200 nM
5,"Cc1c([C@H]2CN3CCN(C(=O)Cc4cnc(-n5cnnn5)nc4)C[C@@H]3CO2)ccc(F)c1C#N [Example 9, 6-fluoro-2-methyl-3-[(3S,9aR)-8-{[2-(1H-tetrazol-1-yl)pyrimidin-5-yl]acetyl}octahydropyrazino[2,1-c][1,4]oxazin-3-yl]benzonitrile]",180 nM
6,"Cc1c([C@@H]2CN3CCN(C(=O)Cc4ccc(-n5cnnn5)nc4)C[C@H]3CO2)ccc(F)c1C#N [Example 5, 6-fluoro-2-methyl-3-[(3R,9aS)-8-{[6-(1H-tetrazol-1-yl)pyridin-3-yl]acetyl}octahydropyrazino[2,1-c][1,4]oxazin-3-yl]benzonitrile]",50 nM
7,"Cc1c([C@@H]2CN3CCN(C(=O)Cc4cnc(-n5cnnn5)nc4)C[C@H]3CN2)ccc(F)c1C#N [Example 193, 6-fluoro-2-methyl-3-[(3R,9aR)-8-{[2-(1H-tetrazol-1-yl)pyrimidin-5-yl]acetyl}octahydro-2H-pyrazino[1,2-a]pyrazin-3-yl]benzonitrile]",100 nM
8,"Cc1c([C@H]2CN3CCN(C(=O)Cc4ncc(-n5cnnn5)cc4Cl)C[C@H]3CO2)ccc(F)c1C#N [Example 153, 3-[(3S,9aS)-8-{[3-chloro-5-(1H-tetrazol-1-yl)pyridin-2-yl]acetyl}octahydropyrazino[2,1-c][1,4]oxazin-3-yl]-6-fluoro-2-methylbenzonitrile]",170 nM
9,"Cc1c([C@@H]2CN3CCN(C(=O)Cc4ncc(-n5cnnn5)cc4Cl)C[C@@H]3CO2)ccc(F)c1C#N [Example 154, 3-[(3R,9aR)-8-{[3-chloro-5-(1H-tetrazol-1-yl)pyridin-2-yl]acetyl}octahydropyrazino[2,1-c][1,4]oxazin-3-yl]-6-fluoro-2-methylbenzonitrile]",200 nM
10,"Cc1cc(-n2cnnn2)cnc1CC(=O)N1CCN2C[C@@H](c3ccc(F)c(C#N)c3C)OC[C@@H]2C1 [Example 84, 6-fluoro-2-methyl-3-[(3R,9aS)-8-{[3-methyl-5-(1H-tetrazol-1-vl)pvridin-2-yl]acetyl}octahydropyrazino[2,1-c][1,4]oxazin-3-yl]benzonitrile]",230 nM
11,"N#Cc1c(F)ccc([C@@H]2CN3CCN(C(=O)Cc4ccc(-n5cnnn5)nc4)C[C@@H]3CO2)c1F [Example 88, 2,6-difluoro-3-[(3R,9aR)-8-{[6-(1H-tetrazol-1-yl)pyridin-3-yl]acetyl}octahydropyrazino[2,1-c][1,4]oxazin-3-yl]benzonitrile]",90 nM
12,"Cc1cc(-n2cnnn2)cnc1CC(=O)N1CCN2C[C@H](c3ccc(F)c(C#N)c3C)OC[C@@H]2C1 [Example 85, 6-fluoro-2-methyl-3-[(3S,9aS)-8-{[3-methyl-5-(1H-tetrazol-1-vl)pvridin-2-yl]acetyl}octahydropyrazino[2,1-c][1,4]oxazin-3-yl]benzonitrile]",240 nM
13,"Cc1c([C@H]2CN3CCN(C(=O)Cc4ccc(-n5cnnn5)nc4)C[C@H]3CN2)ccc(F)c1C#N [Example 192, 6-fluoro-2-methyl-3-[(3S,9aR)-8-{[6-(1H-tetrazol-1-yl)pyridin-3-yl]acetyl}octahydro-2H-pyrazino[1,2-a]pyrazin-3-yl]benzonitrile]",70 nM
14,"O=C1OCc2c1ccc([C@H]1CN3CCN(C(=O)Cc4ccc(-n5cnnn5)nc4)C[C@H]3CO1)c2Cl [Example 47, 4-chloro-5-[(3S,9aS)-8-{[6-(1H-tetrazol-1-yl)pyridin-3-yl]acetyl}octahydropyrazino[2,1-c][1,4]oxazin-3-yl]-2-benzofuran-1(3H)-one]",90 nM
15,"Cc1c([C@H]2CN3CCN(C(=O)Cc4ccc(-n5cnnn5)nc4)C[C@H]3CS2(=O)=O)ccc(F)c1C#N [Example 187, 3-[(3S,9aS)-2,2-dioxido-8-{[6-(1H-tetrazol-1-yl)pyridin-3-yl]acetyl}octahydropyrazino[2,1-c][1,4]thiazin-3-yl]-6-fluoro-2-methylbenzonitrile]",280 nM
16,"Cc1cc(CC(=O)N2CCN3C[C@H](c4ccc(F)c(C#N)c4C)OC[C@@H]3C2)ncc1-n1cnnn1 [Example 130, 6-fluoro-2-methyl-3-[(3S,9aS)-8-{[4-methyl-5-(1H-tetrazol-1-yl)pyridin-2-yl]acetyl}octahydropyrazino[2,1-c][1,4]oxazin-3-yl]benzonitrile]",190 nM
17,"COc1ccc([C@H]2CN3CCN(C(=O)Cc4ccc(-n5cnnn5)nc4)C[C@H]3CO2)c(C)c1C#N [Example 49, 6-methoxy-2-methyl-3-[(3S,9aS)-8-{[6-(1H-tetrazol-1-vl)pvridin-3-yl]acetyl}octahydropyrazino[2,1-c][1,4]oxazin-3-yl]benzonitrile]",290 nM

# From EP2790511B1 (Merck Sharp & Dohme Corp., priority 2011, dated 2013)
